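Tested at 5 concentrations; 48 h exposure; 96-well plates; endpoints linearly interpolated, else capped at highest concentration. At the GI50, growth is halved.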 The source made the active and inactive calls. Cut-off read from the data, not from the text of the source: active = GI50 up to about 1.1 µM and inactive = higher.
Tests used:
Assay in all cases: NCI tumour cell line growth inhibition, 48 h
[1] = system: MDA-MB-231
[2] = system: OVCAR-3
[3] = system: SF-268
[4] = system: Malme-3M
[5] = system: HOP-62
[6] = system: RPMI-8226
[7] = system: MDA-MB-435
[8] = system: SF-539
[9] = system: NCI/ADR-RES
[10] = system: RXF 393
[11] = system: IGROV-1
[12] = system: EKVX
[13] = system: SK-MEL-2
[14] = system: PC-3
[15] = system: SNB-75
[16] = system: TK-10
[17] = system: SK-OV-3
[18] = system: K562
[19] = system: UO-31
[20] = system: OVCAR-5
[21] = system: A498
[22] = system: NCI-H522
[23] = system: SNB-19
[24] = system: CAKI-1
[25] = system: SR
[26] = system: HCC 2998
[27] = system: LOX IMVI
[28] = system: M14
[29] = system: COLO 205
[30] = system: OVCAR-4
[31] = system: A549
[32] = system: 786-0
[33] = system: NCI-H226
[34] = system: UACC-257
[35] = system: ACHN
[36] = system: HCT-116
[37] = system: NCI-H460
[38] = system: T47D
[39] = system: HCT-15
[40] = system: UACC-62
[41] = system: Hs-578T
[42] = system: SK-MEL-5
[43] = system: MDA-N
[44] = system: HT-29
[45] = system: SW-620
[46] = system: SN12C
[47] = system: SK-MEL-28
[48] = system: KM12
[49] = system: DU-145
[50] = system: CCRF-CEM
[51] = system: NCI-H23
[52] = system: HL-60
[53] = system: SF-295
[54] = system: MOLT-4
[55] = system: BT-549
[56] = system: HOP-92
[57] = system: U-251
[58] = system: OVCAR-8
[59] = system: MCF7

COc1cc2nn(-c3ccccc3)nc2c2nonc12
GI50 [1]: > 100 µM (inactive) | GI50 [2]: > 100 µM (inactive) | GI50 [3]: > 100 µM (inactive) | GI50 [4]: > 100 µM (inactive) | GI50 [5]: > 100 µM (inactive) | GI50 [6]: > 100 µM (inactive) | GI50 [7]: > 100 µM (inactive) | GI50 [8]: 87.5 µM (inactive) | GI50 [9]: > 100 µM (inactive) | GI50 [10]: > 100 µM (inactive) | GI50 [11]: > 100 µM (inactive) | GI50 [12]: > 100 µM (inactive) | GI50 [13]: > 100 µM (inactive) | GI50 [14]: > 100 µM (inactive) | GI50 [15]: > 100 µM (inactive) | GI50 [16]: > 100 µM (inactive) | GI50 [17]: > 100 µM (inactive) | GI50 [18]: > 100 µM (inactive) | GI50 [19]: > 100 µM (inactive) | GI50 [20]: > 100 µM (inactive) | GI50 [21]: > 100 µM (inactive) | GI50 [22]: > 100 µM (inactive) | GI50 [23]: > 100 µM (inactive) | GI50 [24]: > 100 µM (inactive) | GI50 [25]: > 100 µM (inactive) | GI50 [26]: > 100 µM (inactive) | GI50 [27]: 38.8 µM (inactive) | GI50 [28]: > 100 µM (inactive) | GI50 [29]: > 100 µM (inactive) | GI50 [30]: 95.9 µM (inactive) | GI50 [31]: > 100 µM (inactive) | GI50 [32]: 91.6 µM (inactive) | GI50 [33]: > 100 µM (inactive) | GI50 [34]: > 100 µM (inactive) | GI50 [35]: > 100 µM (inactive) | GI50 [36]: 41 µM (inactive) | GI50 [37]: > 100 µM (inactive) | GI50 [38]: > 100 µM (inactive) | GI50 [39]: > 100 µM | GI50 [40]: > 100 µM (inactive) | GI50 [41]: 77.3 µM (inactive) | GI50 [42]: > 100 µM (inactive) | GI50 [43]: > 100 µM (inactive) | GI50 [44]: > 100 µM (inactive) | GI50 [45]: > 100 µM (inactive) | GI50 [46]: > 100 µM (inactive) | GI50 [47]: > 100 µM (inactive) | GI50 [48]: > 100 µM (inactive) | GI50 [49]: > 100 µM (inactive) | GI50 [50]: > 100 µM (inactive) | GI50 [51]: > 100 µM (inactive) | GI50 [52]: > 100 µM (inactive) | GI50 [53]: > 100 µM (inactive) | GI50 [54]: > 100 µM (inactive)

NN/C(=N\S(=O)(=O)c1cc(Cl)c(Oc2ccc([N+](=O)[O-])cc2Cl)c(Cl)c1)Nc1ccc(Cl)cc1
GI50 [1]: 18.4 µM (inactive) | GI50 [2]: 15.9 µM (inactive) | GI50 [3]: 19.5 µM (inactive) | GI50 [4]: 21.8 µM (inactive) | GI50 [5]: 18.4 µM (inactive) | GI50 [55]: 18.4 µM (inactive) | GI50 [6]: 31.8 µM (inactive) | GI50 [8]: 14.7 µM (inactive) | GI50 [9]: 23.2 µM (inactive) | GI50 [10]: 13.2 µM (inactive) | GI50 [11]: 20.2 µM (inactive) | GI50 [12]: 21.8 µM (inactive) | GI50 [13]: 18 µM (inactive) | GI50 [14]: 26.5 µM (inactive) | GI50 [15]: 23.7 µM (inactive) | GI50 [16]: 19.3 µM (inactive) | GI50 [56]: 19.9 µM (inactive) | GI50 [17]: 44.7 µM (inactive) | GI50 [18]: 27 µM (inactive) | GI50 [19]: 17.6 µM (inactive) | GI50 [20]: 24.4 µM (inactive) | GI50 [57]: 16.2 µM (inactive) | GI50 [21]: 22.8 µM (inactive) | GI50 [23]: 23.8 µM (inactive) | GI50 [24]: 17.9 µM (inactive) | GI50 [25]: 16.6 µM (inactive) | GI50 [27]: 21 µM (inactive) | GI50 [28]: 17.4 µM (inactive) | GI50 [29]: 15.6 µM (inactive) | GI50 [30]: 17.9 µM (inactive) | GI50 [31]: 17.9 µM (inactive) | GI50 [32]: 18.2 µM (inactive) | GI50 [33]: 15.9 µM (inactive) | GI50 [34]: 17.6 µM (inactive) | GI50 [35]: 23.7 µM (inactive) | GI50 [36]: 15.7 µM (inactive) | GI50 [37]: 15.8 µM (inactive) | GI50 [38]: 19.8 µM (inactive) | GI50 [39]: 19.2 µM | GI50 [40]: 15.5 µM (inactive) | GI50 [42]: 16 µM (inactive) | GI50 [43]: 17.8 µM (inactive) | GI50 [44]: 19.1 µM (inactive) | GI50 [45]: 28.7 µM (inactive) | GI50 [46]: 17.4 µM (inactive) | GI50 [58]: 24.2 µM (inactive) | GI50 [47]: 21.5 µM (inactive) | GI50 [48]: 18.8 µM (inactive) | GI50 [59]: 22.6 µM (inactive) | GI50 [49]: 19.2 µM (inactive) | GI50 [50]: 10.8 µM (inactive) | GI50 [51]: 16.5 µM (inactive) | GI50 [53]: 20.4 µM (inactive) | GI50 [54]: 19.1 µM (inactive)
